In general, melting point refers to the temperature, or range, at which the solid turns liquid.

For the molecule `OC(CCc1cccnc1)COc1ccc(C=Cc2ccccc2)cc1` (centres undefined), the melting point lay within 110 to 111 °C.

Regarding `CC(O)(CCN)C1(F)C=CC(c2ccccc2)=CC1` (centres undefined), the melting point is 144 to 146 °C. To `CCOC(=O)NCc1ccc2[nH]cc(CC#N)c2c1` belongs 104 to 106 °C; to `CC(C)(C)c1ccc(N2CCOCC2)c(NC(=O)C(F)(F)F)c1`, 89 to 90 °C.

`CN(C)CCOc1ccc(CNC(=O)c2ccccc2N)cc1` showed a melting point of 104 to 105 °C. To `O=C(c1ccc(I)cc1)c1cc2c3c(c1)c(-c1cccc(Cl)c1)cc(=O)n3CC2` belongs 202 °C; to `CC(=O)NCN(C(=O)CCl)C(=C(C)C)C(C)C`, 113 to 114 °C. The value for `CCOC(=O)c1ccc(-c2cnc3c(c2)NC(=O)CN3)cc1` was more than 200 °C.

`FC(F)(F)Sc1ncn(-c2c(Cl)cc(C(F)(F)F)cc2Cl)c1Br` gave a melting point of 87.5 °C. The value for `CCCCCNC(=O)C(C)Cc1ccc2c(c1)c(Cc1ccc(C(=O)OC)cc1OC)cn2C` (centres undefined) was 128 to 130 °C; that for `CCn1nc(-c2ccccc2)c(C(C)=O)c(Nc2cc(Br)cc3cccnc23)c1=O` was 147 to 148 °C. On to `Cn1ncnc1COc1nc2c(cc1C1CCC1)nnn2-c1ccccc1F`, for which the melting point was in the range of 120 to 122 °C. The value for `COc1ccccc1Nc1cc(-c2c(-c3cccc(C)c3)nc3cccnn23)ccn1` was 157 to 158 °C; that for `Cc1c(NC(=O)c2ccc(OCC3CCOC3)cc2)ccc2cc(CNC(C)C)cnc12` (centres undefined) was 106 °C. The value for `COC(=O)c1cc(Cl)c(N)cc1O` was 138 to 139 °C; that for `COc1ccc(NC(=O)CN2CCC(Cc3ccc(F)cc3)CC2)cc1` was 121 to 124 °C. `COc1ccc(/C=C/C(=O)Nc2ccccc2C(=O)NCc2cn(CC(=O)Nc3ccccc3)nn2)cc1OC` gave a melting point of 189 to 191 °C. The value for `COc1cccc2c1Sc1ccc(C(C)C(=O)O)cc1C(=O)C2` (centres undefined) was 176 to 178 °C; that for `CCOc1nn(-c2cc(C(F)(F)F)ccn2)cc1CCCOc1ccccc1CC(=O)O` was 121 to 122 °C. To `OC1Cc2cccc(Br)c2C1` (centres undefined) belongs 80 °C; to `CCn1nc(C(F)(F)F)c(CS(=O)(=O)C2=NOC(C)(CCl)C2)c1C#N` (centres undefined), 76 to 78 °C. Molecule `CN(c1cccc2cc(-c3nccs3)[nH]c12)S(=O)(=O)c1ccsc1C(=O)N1CCOCC1` displayed a melting point of 190 °C. The value for `CN1C(C)(C)CC(N(CCCCCCN(C2CC(C)(C)N(C)C(C)(C)C2)P2OCC(C)(C)CO2)P2OCC(C)(C)CO2)CC1(C)C` was 103 °C; that for `CCCCNC(=O)NS(=O)(=O)c1c(C(=O)OC)cnn1C` was 88 to 90 °C.

As for `c1ccc2c(c1)CCC1(CCOCC1)NC2`, the melting point is 76 to 78 °C. To `CCc1nc2c(N)nc3ccccc3c2n1CCCC#Cc1ccccc1` belongs 199 to 202 °C; to `O=C=Nc1ccc(C(=S)OC2CCCCC2)c(Cl)c1`, 60 to 65 °C; to `COc1ccc(-c2nnc(SC)nc2-c2ccc(OC)cc2)cc1`, 152 to 155 °C. In turn, `CCOC(=O)C(C)(C)Oc1ccc2c(c1)C=C(c1nccn1C)CO2` showed a melting point of 210 to 215 °C.

Molecule `OCC1OC(n2cnc3c(NCc4ccccc4Cl)ncnc32)C(O)C1O` (centres undefined) showed a melting point of 182 to 183 °C. The value for `COC(=O)Cn1c(=O)[nH]c(=O)n(-c2cc(Oc3ccc(C(F)(F)F)c(Cl)c3)ccc2[N+](=O)[O-])c1=O` was 166 to 167 °C; that for `O=C(Nc1cccc2c1C1CCCCN1C2=O)Nc1nc(Cl)c(Cl)c(Cl)c1Cl` (centres undefined) was 246 °C; that for `COc1ccc(N)c(CCc2ccccn2)c1` was 77.5 to 78.5 °C. The value for `O=C(O)CCC(=O)c1ccc(N2CCC3(CC2)OCCO3)cc1` was 130 to 131 °C; that for `Cc1ccc(-n2cc(-c3cccn4nc(Nc5ccc(C6CCNCC6)cc5)nc34)cn2)cc1` was 216 to 218 °C; that for `Oc1ccc(C2=NCCCO2)cc1` was 196 to 198 °C. To `COC[C@@H](N)C(=O)N(O)C(=O)OC(C)(C)C` belongs 83 to 85 °C. In turn, `CSCc1nc(C(C)(C)O)c(C(=O)O)n1Cc1ccc(-c2ccccc2-c2nnn[nH]2)cc1` yielded a melting point of 172 to 181 °C.

Turning to `CC(C)(C)C(O)(Cn1cncn1)C1CC1c1ccc(Cl)cc1Cl` (centres undefined), the melting point is 98 to 101 °C. To `O=C(CCCCCCNS(=O)(=O)c1ccc(C(=O)Nc2ccc(Cl)c(-c3ccccn3)c2)c(Cl)c1)NO` belongs 159 °C. The value for `COCCC1(C(=O)N[C@@H](Cc2ccc(N3C(=O)c4cccc(C#N)c4C3=O)cc2)C(=O)OC)CCCC1` was 122 to 126 °C. `Clc1nc2ccccc2c2c1ncn2Cc1ccncc1` showed a melting point of more than 300 °C. To `O=C(c1ccc(NS(=O)(=O)c2ccccc2Cl)cc1)N1Cc2cccn2Cc2ccccc21` belongs 206 to 210 °C; to `CC(C)N1C(=O)[C@@H](CCO)O[C@H](c2ccccc2Cl)c2cc(Cl)ccc21` (relative stereo), 188 to 189 °C; to `O=C(O)c1cn2c(n1)COc1ccc(Cl)cc1-2`, 276 to 278 °C. Take `N#Cc1c(N)oc2ccccc2c1=O`: the melting point is 315 to 320 °C. The value for `COc1nc(C)cnc1NS(=O)(=O)c1cccnc1-c1ccc(OC(C)(C)CO)cc1` was 182 to 184 °C; that for `COC1=C(c2cccc(C(F)(F)F)c2)C(=O)N(C(C)(C)C)C1` was 129 °C. The value for `c1c2c(cc3c1OCO3)CCNCC2` was 82 to 84 °C; that for `CN(C)c1ccc2nc(-c3ccccc3)oc2n1` was 127 to 129 °C; that for `Cc1cc(Cc2nnc(Nc3ccc(Cl)cc3)c3ccccc23)cc(C)n1` was 175 to 176 °C. The value for `Cc1cccc(C#Cc2cccc(Br)c2)n1` was 60 to 61 °C; that for `CCN1c2ncc(CCc3cccc(I)c3)cc2C(=O)N(C)c2ccc(Cl)nc21` was 143 to 145 °C. In turn, `CC(=O)Oc1ccc(C)cc1[C@H](CCN(C(C)C)C(C)C)c1ccccc1` yielded a melting point of 126 to 130 °C. To `O=C(Nc1ccc(Br)cn1)Nc1cccc2c1C1CCCCN1C2=O` (centres undefined) belongs 225 °C. To `O=C(NCC(F)(F)F)NCC(F)(F)F` belongs 154 to 155 °C. The value for `COC(=O)C1Oc2ccccc2CC1CO` (centres undefined) was 84 to 85 °C; that for `COc1cccc2c1C(CN1CC=C(c3c[nH]c4cc(Cl)ccc34)CC1)CC2` (centres undefined) was 177 to 178 °C. Molecule `CCOC(=O)c1cc2cc(C#N)ccc2s1` registered a melting point of 138 to 139 °C. `CNc1ncc2c(n1)N(c1ccccc1)C(=O)N(c1c(Cl)cccc1Cl)C2` displayed a melting point of 211 to 213 °C.

On to `COc1ccc(C(=O)Nc2ccc3ccc(Oc4ccc(Cl)c(Cl)c4)nc3n2)cc1`, for which the melting point came out at 180 °C. Molecule `CNC(=O)c1ccc(NC(=O)OC(C)(C)C)cc1` had a melting point of 185 °C.

Molecule `c1ccc2c(c1)CCCC2N1CCCNCC1` (centres undefined) registered a melting point of 107 to 109 °C. The value for `O=C1CCC(N2C(=O)c3cccc(NCc4cccnc4)c3C2=O)C(=O)N1` (centres undefined) was 231 to 233 °C.
